Experimental data from US11066392B2, “Inhibitors of indoleamine 2,3-dioxygenase and methods of their use” (BRISTOL-MYERS SQUIBB COMPANY, priority 2017, dated 2021).
pIC50: −log10 of the molar value.

Each compound was assayed against indoleamine 2,3-dioxygenase (IDO) (Homo sapiens, UniProt P14902) (assay: HeLa cell-based indoleamine 2,3-dioxygenase (IDO) assay (kynurenine production, IFNγ-stimulated)). Details: HeLa cells, IFNγ 25 ng/mL, 48 hour incubation; read-out: IDO Hela IC50.
Method: Assessment of inhibitor activity in HeLa cell-based indoleamine 2,3-dioxygenase (IDO) assay. HeLa (ATCC® CCL-2) cells were obtained from the ATCC® and cultured in Dulbecco's Modified Eagle Medium supplemented with 4.5 g/L glucose, 4.5 […] sodium pyruvate (#10-013-CV, Corning), 2 mM L-alanyl-L-glutamine dipeptide (#35050-061, Gibco), 100U/mL penicillin, 100 μg/mL streptomycin (#SV30010, HyClone) and 10% fetal bovine serum (#SH30071.03 HyClone). Cells were maintained in a humidified incubator at 37° C. in 5% CO2. […] After 24 hours, the media was aspirated and replaced with media containing IFNγ (#285-IF/CF, R&D Systems) at a final concentration of 25 ng/mL. A serial dilution of each test compound was added to the cells in a total volume of 200 μL of culture medium. After a further 48 hour incubation, 170 μL of supernatant was transferred from each well to a fresh 96-well plate. 12.1 μL of 6.1N trichloroacetic acid (#T0699, Sigma-Aldrich) was added to each well and mixed, followed by incubation at 65° C. for 20 minutes to hydrolyze N-formylkynurenine, the product of indoleamine 2,3-dioxygenase, to kynurenine. The reaction mixture was then centrifuged for 10 mins at 500×g to sediment the precipitate. 100 μL of the supernatant was transferred from each well to a fresh 96-well plate. 100 μl of 2% (w/v) p-dimethylaminobenzaldehyde (#15647-7, Sigma-Aldrich) in acetic acid (#A6283, Sigma-Aldrich) was added to each well mixed and incubated at room temperature for 20 mins. Kynurenine concentrations were determined by measuring absorbance at 480 nm and calibrating against an L-kynurenine (#K8625, Sigma-Aldrich) standard curve using a SPECTRAMAX® M2e microplate reader (Molecular Devices). The percentage activity at each inhibitor concentration was determined and IC50 values assessed using nonlinear regression. Activity for compounds described herein is provided in Table 1, wherein potency levels are provided as follows: (Potency: IDO IC50: […])

Chain of indoleamine 2,3-dioxygenase (IDO) (P14902 whole entry): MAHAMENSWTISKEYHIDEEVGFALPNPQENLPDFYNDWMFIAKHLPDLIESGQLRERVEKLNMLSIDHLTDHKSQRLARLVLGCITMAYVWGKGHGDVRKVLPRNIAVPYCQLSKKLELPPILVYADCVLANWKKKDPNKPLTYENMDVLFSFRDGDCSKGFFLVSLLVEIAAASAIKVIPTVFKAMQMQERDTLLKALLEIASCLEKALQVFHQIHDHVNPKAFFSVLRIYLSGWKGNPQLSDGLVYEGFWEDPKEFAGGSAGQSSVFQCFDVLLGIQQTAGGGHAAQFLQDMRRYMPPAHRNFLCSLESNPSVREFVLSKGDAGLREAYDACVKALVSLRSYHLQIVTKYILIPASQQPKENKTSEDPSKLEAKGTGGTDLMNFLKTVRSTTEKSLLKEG

Question: `CCC(NC(=O)c1ccc(OC)nc1)C1CCC(c2cccc(C)n2)CC1` (single isomer, unassigned) [Example 46a, 6-methoxy-N-(1-(4-(6-methylpyridin-2-yl)cyclohexyl)propyl)nicotinamide] was tested. Which pIC50 did it give?
Answer: 6.48

Question: How did the pIC50 turn out when `CCC(NC(=O)c1ccc(OC)nc1)C1CCC(c2cccc(C(F)(F)F)n2)CC1` (single isomer, unassigned) [Example 47a, 6-methoxy-N-(1-(4-(6-(trifluoromethyl)pyridin-2-yl)cyclohexyl)propyl)nicotinamide] was run?
Answer: 6.74

Question: How did the pIC50 turn out when `CCC(NC(=O)c1ccc(OC)nc1)C1CCC(c2cccc(C(F)(F)F)n2)CC1` (single isomer, unassigned) [Example 47d, 6-methoxy-N-(1-(4-(6-(trifluoromethyl)pyridin-2-yl)cyclohexyl)propyl)nicotinamide] was run?
Answer: 6.54

Question: With `CCC(NC(=O)c1ccc(OC)nc1)C1CCC(c2cccc(OC(F)F)n2)CC1` (single isomer, unassigned) [Example 48a, N-(1-(4-(6-(difluoromethoxy)pyridin-2-yl)cyclohexyl)propyl)-6-methoxynicotinamide] as the compound, how does the pIC50 read?
Answer: 6.44

Question: How did the pIC50 turn out when `CCC(NC(=O)c1ccc(OC)nc1)C1CCC(c2cccc(OC(F)F)n2)CC1` (single isomer, unassigned) [Example 48c, N-(1-(4-(6-(difluoromethoxy)pyridin-2-yl)cyclohexyl)propyl)-6-methoxynicotinamide] was run?
Answer: 6.57

Question: `CCC(NC(=O)c1ccc(OC)nc1)[C@H]1CC[C@@H](c2nccc(C)n2)CC1` (single isomer, unassigned) [Example 49a, (±)-6-methoxy-N-(1-(4-(4-methylpyrimidin-2-yl)cyclohexyl)propyl)nicotinamide] was tested. Which pIC50 did it give?
Answer: 7.15

Question: With `CCC(NC(=O)c1ccc(OC)nc1)[C@H]1CC[C@@H](c2nccc(C)n2)CC1` (single isomer, unassigned) [Example 49b, (±)-6-methoxy-N-(1-(4-(4-methylpyrimidin-2-yl)cyclohexyl)propyl)nicotinamide] as the compound, how does the pIC50 read?
Answer: 7.52

Question: `CC[C@H](NC(=O)c1ccc(OC)nc1)[C@H]1CC[C@@H](c2cncc(OC)c2)CC1` (single isomer, unassigned) [Example 50a, 6-methoxy-N-(1-(4-(5-methoxypyridin-3-yl)cyclohexyl)propyl)nicotinamide] was tested. Which pIC50 did it give?
Answer: 6.00

Question: `CC[C@H](NC(=O)c1ccc(OC)nc1)[C@H]1CC[C@@H](c2cncc(OC)c2)CC1` (single isomer, unassigned) [Example 50b, 6-methoxy-N-(1-(4-(5-methoxypyridin-3-yl)cyclohexyl)propyl)nicotinamide] was tested. Which pIC50 did it give?
Answer: 6.60

Question: How did the pIC50 turn out when `CC[C@H](NC(=O)c1ccc(OC)nc1)[C@H]1CC[C@@H](c2cncc(OC)c2)CC1` (single isomer, unassigned) [Example 50d, 6-methoxy-N-(1-(4-(5-methoxypyridin-3-yl)cyclohexyl)propyl)nicotinamide] was run?
Answer: 6.66

Question: `COC[C@H](NC(=O)c1ccc(OC)nc1)[C@H]1CC[C@@H](c2ccnc(OC)c2C(F)F)CC1` (single isomer, unassigned) [Example 51b, N-(1-(4-(3-(difluoromethyl)-2-methoxypyridin-4-yl)cyclohexyl)-2-methoxyethyl)-6-methoxynicotinamide] was tested. Which pIC50 did it give?
Answer: 6.41

Question: `COC[C@H](NC(=O)c1ccc(OC)nc1)[C@H]1CC[C@@H](c2ccnc(OC)c2C(F)F)CC1` (single isomer, unassigned) [Example 51c, N-(1-(4-(3-(difluoromethyl)-2-methoxypyridin-4-yl)cyclohexyl)-2-methoxyethyl)-6-methoxynicotinamide] was tested. Which pIC50 did it give?
Answer: 6.66

Question: How did the pIC50 turn out when `COC[C@H](NC(=O)c1ccc(OC)nc1)[C@H]1CC[C@@H](c2ccnc(OC)c2C(F)F)CC1` (single isomer, unassigned) [Example 51d, N-(1-(4-(3-(difluoromethyl)-2-methoxypyridin-4-yl)cyclohexyl)-2-methoxyethyl)-6-methoxynicotinamide] was run?
Answer: 7.00

Question: With `CC[C@@H](NC(=O)c1ccc(OC)nc1)[C@H]1CC[C@@H](c2ccnc3ncccc32)CC1` (single isomer, unassigned) [Example 53a, N-(1-(4-(1,8-naphthyridin-4-yl)cyclohexyl)propyl)-6-methoxynicotinamide] as the compound, how does the pIC50 read?
Answer: 8.00

Question: How did the pIC50 turn out when `CC[C@@H](NC(=O)c1ccc(OC)nc1)[C@H]1CC[C@@H](c2ccnc3ncccc32)CC1` (single isomer, unassigned) [Example 53b, N-(1-(4-(1,8-naphthyridin-4-yl)cyclohexyl)propyl)-6-methoxynicotinamide] was run?
Answer: 6.17

Question: `CC[C@@H](NC(=O)c1ccc(OC)nc1)[C@H]1CC[C@@H](c2ccnc(F)c2C)CC1` (single isomer, unassigned) [Example 56b, N-(1-(4-(2-fluoro-3-methylpyridin-4-yl)cyclohexyl)propyl)-6-methoxynicotinamide] was tested. Which pIC50 did it give?
Answer: 6.92

Question: How did the pIC50 turn out when `CC[C@@H](NC(=O)c1ccc(OC)nc1)[C@H]1CC[C@@H](c2ccnc(F)c2C)CC1` (single isomer, unassigned) [Example 56c, N-(1-(4-(2-fluoro-3-methylpyridin-4-yl)cyclohexyl)propyl)-6-methoxynicotinamide] was run?
Answer: 6.22

Question: With `CCC(NC(=O)c1ccc(OC)nc1)C1CCC(c2ccnc3c(F)cc(F)cc23)CC1` (single isomer, unassigned) [Example 57a] as the compound, how does the pIC50 read?
Answer: 6.08

Question: How did the pIC50 turn out when `CCC(NC(=O)c1ccc(OC)nc1)C1CCC(c2ccnc3c(F)cc(F)cc23)CC1` (single isomer, unassigned) [Example 57c] was run?
Answer: 6.89

Question: `CCC(NC(=O)c1ccc(OC)nc1)C1CCC(c2ccnc3c(F)cc(F)cc23)CC1` (single isomer, unassigned) [Example 57d] was tested. Which pIC50 did it give?
Answer: 7.40

Question: How did the pIC50 turn out when `CCC(NC(=O)c1cnc(OC)nc1)C1CCC(c2ccnc3c(F)cc(F)cc23)CC1` (single isomer, unassigned) [Example 58a] was run?
Answer: 6.51

Question: With `CCC(NC(=O)c1cnc(OC)nc1)C1CCC(c2ccnc3c(F)cc(F)cc23)CC1` (single isomer, unassigned) [Example 58b] as the compound, how does the pIC50 read?
Answer: 6.30

Question: How did the pIC50 turn out when `CCC(NC(=O)c1cnc(OC)nc1)C1CCC(c2ccnc3c(F)cc(F)cc23)CC1` (single isomer, unassigned) [Example 58c] was run?
Answer: 6.44

Same assay, conditions: HeLa cells; potency class; read-out: Patent Potency Hela IC50 A < 10 nM, B > 10 nM, C > 100 nM

Question: How did the pIC50 turn out when `CCC(NC(=O)c1ccc(OC)nc1)C1CCC(c2cccc(C)n2)CC1` (single isomer, unassigned) [Example 46b, 6-methoxy-N-(1-(4-(6-methylpyridin-2-yl)cyclohexyl)propyl)nicotinamide] was run?
Answer: < 7.00

Question: How did the pIC50 turn out when `CCC(NC(=O)c1ccc(OC)nc1)C1CCC(c2cccc(C)n2)CC1` (single isomer, unassigned) [Example 46c, 6-methoxy-N-(1-(4-(6-methylpyridin-2-yl)cyclohexyl)propyl)nicotinamide] was run?
Answer: < 7.00

Question: With `CCC(NC(=O)c1ccc(OC)nc1)C1CCC(c2cccc(C(F)(F)F)n2)CC1` (single isomer, unassigned) [Example 47b, 6-methoxy-N-(1-(4-(6-(trifluoromethyl)pyridin-2-yl)cyclohexyl)propyl)nicotinamide] as the compound, how does the pIC50 read?
Answer: < 7.00

Question: With `CCC(NC(=O)c1ccc(OC)nc1)C1CCC(c2cccc(C(F)(F)F)n2)CC1` (single isomer, unassigned) [Example 47c, 6-methoxy-N-(1-(4-(6-(trifluoromethyl)pyridin-2-yl)cyclohexyl)propyl)nicotinamide] as the compound, how does the pIC50 read?
Answer: < 7.00

Question: With `CCC(NC(=O)c1ccc(OC)nc1)C1CCC(c2cccc(OC(F)F)n2)CC1` (single isomer, unassigned) [Example 48b, N-(1-(4-(6-(difluoromethoxy)pyridin-2-yl)cyclohexyl)propyl)-6-methoxynicotinamide] as the compound, how does the pIC50 read?
Answer: < 7.00

Question: `CCC(NC(=O)c1ccc(OC)nc1)C1CCC(c2cccc(OC(F)F)n2)CC1` (single isomer, unassigned) [Example 48d, N-(1-(4-(6-(difluoromethoxy)pyridin-2-yl)cyclohexyl)propyl)-6-methoxynicotinamide] was tested. Which pIC50 did it give?
Answer: < 7.00

Question: How did the pIC50 turn out when `COC[C@H](NC(=O)c1ccc(OC)nc1)[C@H]1CC[C@@H](c2ccnc(OC)c2C(F)F)CC1` (single isomer, unassigned) [Example 51a, N-(1-(4-(3-(difluoromethyl)-2-methoxypyridin-4-yl)cyclohexyl)-2-methoxyethyl)-6-methoxynicotinamide] was run?
Answer: > 8.00

Question: `CC[C@@H](NC(=O)c1ccc(OC)nc1)[C@H]1CC[C@@H](c2ccnc3ncccc32)CC1` (single isomer, unassigned) [Example 53c, N-(1-(4-(1,8-naphthyridin-4-yl)cyclohexyl)propyl)-6-methoxynicotinamide] was tested. Which pIC50 did it give?
Answer: < 7.00

Question: How did the pIC50 turn out when `CCC(NC(=O)c1ccc(OC)nc1)C1CCC(c2ccnc3c(F)cc(F)cc23)CC1` (single isomer, unassigned) [Example 57b] was run?
Answer: > 8.00
